Reference: publication PMC7546004, “Targeting BCL10 by small peptides for the treatment of B cell lymphoma” (Theranostics, 2020)
Read-outs that look alike come from different tables or passages of the source. Square brackets hold non-standard residues; d marks the D form. Ends that are not written are not given here. Peptide text beside a SMILES is read from it. * marks the point of attachment. Cbz = O=C(OCc1ccccc1)*

Columns and labels:
BCL10 [1] = target: T1, BCL10 (Homo sapiens, UniProt O95999); assay: Western blot of BCL10 protein level in DLBCL cells; format: cell-based; design: Western blot of BCL10 in cells treated with different concentrations of BCL10-P4 for 8 h; endogenous in cells; host or cells: HBL1, TMD8, OCI-LY1 DLBCL cells; settings: HBL1 cells, BCL10-P4 1 h pretreatment, then MG132 or chloroquine 3 h; Figure 4H
T1 sequence (O95999 1-233): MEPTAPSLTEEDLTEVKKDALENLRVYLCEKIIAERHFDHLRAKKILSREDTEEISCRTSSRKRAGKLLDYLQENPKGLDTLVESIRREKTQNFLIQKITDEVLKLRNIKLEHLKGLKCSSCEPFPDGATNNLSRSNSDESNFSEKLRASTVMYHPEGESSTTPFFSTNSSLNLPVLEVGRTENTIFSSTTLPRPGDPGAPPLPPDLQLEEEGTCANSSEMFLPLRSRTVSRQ
Description: Cell pellets were lysed in RIPA buffer (50 mM Tris at pH 8.0, 150 mM NaCl, 1% NP-40, 1 mM EDTA, and 1X protease inhibitor cocktail) or RIPA buffer containing 0.1% SDS. Equal amounts of protein extracts were separated by SDS-PAGE and blotted onto polyvinylidene difluoride (PVDF) membranes.

BCL10 [2] = target: T1, BCL10; assay: In vitro BCL10 filamentation assay (negative-stain electron microscopy); format: biochemical; settings: MBP-BCL10 and peptide premixed at 1:1 or 1:2 molar ratio, RT 30 min, then TEV cleavage
Description: MBP-BCL10 was expressed and purified as previously described. MBP-BCL10 and BCL10 peptide inhibitors were premixed at a 1:1 or 1:2 molar ratio at RT for 30 minutes before adding TEV to cleave the MBP tag. 5 μL of reaction mixture was applied to copper grids (Beijing Zhongjingkeyi Technology Co., Cat. No. BZ10024a), where it remained for 1 minute and was then negatively stained with 3% uranyl acetate for 1 minute, air-dried and imaged with a JEM-1230 TEM at 100 keV.

TMD8 cells = format: cell-based, human
From the text: (§1) GraphPad Prism software was used to determine GI50 values.

HBL1 cells [3] = format: cell-based
From the text: as §1

[4] = test system: NF-κB target genes in TMD8 cells; assay: RNA-seq gene set enrichment analysis of NF-κB target genes; format: cell-based; settings: BCL10-P4 5 μM, ibrutinib 10 nM, 8 h and 24 h, duplicate
Description: 1:100 dilution for 15 min at room temperature in the dark. Signals from FL1 and FL3 channels were collected by MACSQuant analyzer and data were analyzed using FloJo (Ashland, OR). Early apoptosis was defined as AnnexinV+/PI-, and late apoptosis as AnnexinV+/PI+. Percentage of apoptotic cells were the sum of early and late apoptotic cells.
For cell cycle analysis, cells were washed twice with cold PBS and fixed in 70% ethanol overnight at 4°C. Fixed cells were collected at 1800 rpm for 10 min and stained with PBS containing PI and DNase-free RNase A (Sigma-Aldrich) for 1h at room temperature in the dark. DNA content was measured by BD LSRII flow cytometer and data were analyzed in FloJo. […]
All extracts were treated with DNase in column during RNA purification. RNA integrity was determined on an Agilent 2100 Bioanalyzer (Agilent Technologies, SantaClara, CA). […]
RNAseq raw data are analyzed with the Salmon software 30 using default settings. Log2Fold changes and P values of differentiation gene expression between different samples are calculated using the Bioconductor - DESeq2 R package 31 using default settings. […]
Six-week-old female NOD prkdc-/- IL-2Rg-/- (NCG) mice purchased from GemPharmatech Co., Lt d we re raised in a SPF- level Laboratory Animal Room. […] Tumor volumes were monitored by a digital caliper every other day and calculated using the formula: (smallest diameter2 x largest diameter)/2. […]

SUDHL6 = format: cell-based, human; settings: 24 h
From the text: as §1

BPH-1 = assay: Growth inhibition, noncancerous cell line; format: cell-based
From the text: as §1

293T = assay: Growth inhibition, noncancerous cell line; format: cell-based
From the text: as §1

KARPAS422 = format: cell-based; settings: 24 h
From the text: as §1

RCK8 = format: cell-based; settings: 24 h
From the text: as §1

[5] = test system: ABC-DLBCL cells (HBL1 and TMD8 cell lines); format: cell-based; settings: 72 h
From the text: as §1

DLBCL cell lines = format: cell-based
From the text: as §1

OCI-LY3 = format: cell-based; settings: 24 h
From the text: as §1

SUDHL4 = format: cell-based; settings: 24 h
From the text: as §1

HBL1 cells [6] = assay: Intracellular pharmacokinetics, BCL10-P4 versus DRI-BCL10-P4; settings: Figure 6B and S7A; western blot
Description: MBP-Bcl10 was expressed and purified as previously described {Qiao, 2013 #85}. Purified
mM NaCl, 1% NP-40) at 4 °C for 1 hour, followed by addition of 5% BSA blocked S t re ptavidin (SAV)
Immunoprecipitant were washed 5 times with IP buffer and separated by SDS-PA G E . […]
(§2) hActin- F: 5’-[…]-3’
(§3) hIL6-R: 5’- […]-3 ’.
(§4) hBcl10-F: 5’-[…] TAGAAA-3’
(§5) hBcl10-R: 5’-[…] T-3’
(§6) 1x105 HBL1, TMD8, OCl-LY 1 , OCl-LY 1 , U2932, MD901 or RCK8 cells were seeded in 12-well plate
(§7) wa sh e d and lysed with RIPA buffer.
(§8) immunoblotting with Streptavidin (Cell signaling, cat. #3999S). […]

Jurkat cells = assay: Growth inhibition; format: cell-based; settings: Figure S3E; exposure time not given
From the text: as §1

[7] = test system: HBL1, TMD8 and OCI-LY1 cells; assay: Intracellular pharmacokinetics of biotinylated BCL10-P4 (streptavidin blot); format: in vitro ADME
Description: as §2, §3, §4, §5, §6, §7, §8

[8] = 5 μM biotinylated BCL10-P4, cell lysate blotted with streptavidin
[9] = noncancerous cell line, Figure S2C

For CCN(CC)CCCC(C)Nc1ccnc2cc(Cl)ccc12 (centres unmarked) [CHL, chloroquine], the “BCL10 degradation by BCL10-P4 with proteasome or autophagy inhibitor” value (BCL10 [1]) was “prevented BCL10 degradation by BCL10-P4”.
For CC[C@@H](C)[C@@H](NC(=O)[C@@H](CC(C)C)NC(=O)[C@@H](CO)NC(=O)[C@H](N)CCCNC(=N)N)C(=O)N[C@H](CCCCN)C(=O)N[C@H](CCCCN)C(=O)N[C@H](C)C(=O)N[C@H](CCCNC(=N)N)C(=O)N[C@H](CC(C)C)C(=O)N[C@H](Cc1c[nH]cn1)C(=O)N[C@H](CC(=O)O)C(=O)N[C@H](Cc1ccccc1)C(=O)N[C@H](Cc1c[nH]cn1)C(=O)N[C@H](CCCNC(=N)N)C(=O)N[C@H](CCCCN)C(=O)N[C@H](CCCCN)C(=O)N[C@H](Cc1c[nH]c2ccccc12)C(=O)N[C@H](CCCCN)C(=O)N[C@H](CCSC)C(=O)N[C@H](CCCNC(=N)N)C(=O)N[C@H](CCCNC(=N)N)C(=O)N[C@H](CC(N)=O)C(=O)N[C@H](CCC(N)=O)C(=O)N[C@H](Cc1ccccc1)C(=O)N[C@H](Cc1c[nH]c2ccccc12)C(=O)N[C@@H](C(=O)N[C@H](CCCCN)C(=O)N[C@@H](C(=O)N[C@H](CCC(N)=O)C(=O)N[C@H](CCCNC(=N)N)C(=O)N[C@H](CC(=O)O)C(=O)O)[C@H](C)CC)[C@H](C)CC [DRI-BCL10-P2] (H-[dR][dS][dL][dI][dK][dK][dA][dR][dL][dH][dD][dF][dH][dR][dK][dK][dW][dK][dM][dR][dR][dN][dQ][dF][dW][dI][dK][dI][dQ][dR][dD]-OH; N-terminus and C-terminus assumed), the “BCL10 filament formation (EM)” value (BCL10 [2]) was “inhibited Bc10 filament formation in vitro”, the GI50 (TMD8 cells) was 13.6 ± 2.3 µM and the GI50 (HBL1 cells [3]) was 7.64 ± 3.5 µM.
CC(C)C[C@@H](C=O)NC(=O)[C@H](CC(C)C)NC(=O)[C@H](CC(C)C)NC(=O)OCc1ccccc1 [MG132] (Cbz-Leu-Leu-Leu-aldehyde) was tested, and the “BCL10 degradation by BCL10-P4 with proteasome or autophagy inhibitor” value (BCL10 [1]) was “negligibly prevented BCL10 degradation”.
For C=CC(=O)N1CCC[C@@H](n2nc(-c3ccc(Oc4ccccc4)cc3)c3c(N)ncnc32)C1 [ibrutinib], the “expression of NF-κB target genes (GSEA)” value [4] was “comparable to the effect of ibrutinib treatment”.
For DRQIKIWFQNRRMKWKKEKIIAERHF [BCL10-P1], the GI50 (HBL1 cells [3]; 72 h) was 53.9 ± 10.3 µM.
In the case of “DRQIKIWFQNRRMKWKKKGLDTLVESIRREKTQ [BCL10-P5]”, the GI50 (TMD8 cells; 72 h) is reported as 49 ± 33.9 µM and the GI50 (HBL1 cells [3]; 72 h) is reported as 66.5 ± 9.2 µM.
For “DRQIKIWFQNRRMKWKKRHFDHLRAKKILSR [BCL10-P2]”, the GI50 (SUDHL6) was 5.42 ± 3.09 µM, the GI50 (TMD8 cells; 72 h) was 3.35 ± 1.1 µM and the “growth inhibition effect on BPH-1” value (BPH-1) was “neither BCL10-P2 nor BCL10-P4 displayed a growth inhibition effect”. The “growth inhibition effect on 293T” value (293T) was “neither BCL10-P2 nor BCL10-P4 displayed a growth inhibition effect”, the GI50 (KARPAS422) was 5.39 ± 0.2 µM and the GI50 (HBL1 cells [3]; 72 h) was 5.1 ± 0.8 µM. It also gave a GI50 (RCK8) of 16 ± 12.3 µM, a GI50 [5] of 3 to 6 µM and a GI50 (DLBCL cell lines) of less than 10 µM. It also gave a GI50 (OCI-LY3) of 5.51 ± 0.9 µM and a GI50 (SUDHL4) of 2.56 ± 0.23 µM.
In the case of “DRQIKIWFQNRRMKWKKRTSSRKRAGKLLDYLQE [BCL10-P4]”, the GI50 (TMD8 cells; 72 h, Figure 2B, mean ± SD of three independent experiments, read-out: GI50 TMD8) is reported as 4.7 ± 1.8 µM, the “intracellular level after the first 4 h (intracellular stability)” value (HBL1 cells [6]) is reported as “decreased rapidly thereafter” and the “uptake by HBL1 cells and level within the first 4 h” value (HBL1 cells [6]) is reported as “similarly taken up”. The GI50 (Jurkat cells) was 10.3 ± 2.29 µM, the “cellular uptake (entry into cells)” value ([7]; 5 μM biotinylated BCL10-P4, 1-24 h, cell lysate blotted with streptavidin) was “comparable efficiency” and the “time of disappearance from cells” value [7, 8] was “approximately 24 h”. The “time of peak intracellular level” value [7, 8] was 1 to 2 h, the “growth inhibition effect on BPH-1” value (BPH-1; [9]) was “neither BCL10-P2 nor BCL10-P4 displayed a growth inhibition effect” and the “growth inhibition effect on 293T” value (293T; [9]) was “neither BCL10-P2 nor BCL10-P4 displayed a growth inhibition effect”. It also gave a GI50 (HBL1 cells [3]; 72 h, Figure 2B, mean ± SD of three independent experiments, read-out: GI50 HBL1) of 4.2 ± 1 µM, a GI50 ([5]; text summary of Figure 2A-B, read-out: GI50 in the HBL1 and TMD8 cells) of 3 to 6 µM and a GI50 (DLBCL cell lines; only exception U2932, read-out: GI50 values on most ABC-DLBCL cell lines) of less than 10 µM.
